Test results: patent US20090215627A1, “Crystal Structure of Biotin Carboxylase (Bc) Domain of Acetyl-Coenzyme a Carboxylase and Methods of Use Thereof” (priority 2004, published 2009)

Key:
[1] = tested on: ACC; settings: kinetic data, literature; cited from earlier work
[2] = molecular target: T1, I69E mutant yeast BC domain (Saccharomyces cerevisiae, UniProt Q00955, I69E); test: fluorescence-based binding assay, I69E mutant; settings: 50 nM enzyme
T1 construct: Residues 2-581 of yeast ACC were sub-cloned into the pET28a vector; made in house; host or cells: E. coli
T1 sequence (Q00955 2-581 I69E): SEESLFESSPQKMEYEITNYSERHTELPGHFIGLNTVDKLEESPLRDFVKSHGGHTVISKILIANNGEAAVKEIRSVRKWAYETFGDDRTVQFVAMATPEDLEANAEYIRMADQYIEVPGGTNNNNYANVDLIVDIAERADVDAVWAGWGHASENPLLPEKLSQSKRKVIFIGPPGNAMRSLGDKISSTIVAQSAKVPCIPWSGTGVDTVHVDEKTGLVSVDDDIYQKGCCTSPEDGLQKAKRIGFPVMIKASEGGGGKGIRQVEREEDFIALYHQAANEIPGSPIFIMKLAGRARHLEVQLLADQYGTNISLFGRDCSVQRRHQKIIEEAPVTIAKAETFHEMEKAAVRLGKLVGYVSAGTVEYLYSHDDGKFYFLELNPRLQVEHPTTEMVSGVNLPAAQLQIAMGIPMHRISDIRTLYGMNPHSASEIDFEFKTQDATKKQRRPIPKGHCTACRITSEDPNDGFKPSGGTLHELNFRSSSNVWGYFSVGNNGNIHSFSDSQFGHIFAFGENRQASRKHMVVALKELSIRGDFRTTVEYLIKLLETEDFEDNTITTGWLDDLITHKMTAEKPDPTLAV
Experimental: (§1) We have developed a fluorescence-based binding assay using our structural information, which monitored the increase in Trp emission upon soraphen binding. The binding buffer initially contained 100 mM Tris (pH 8.0), 100 mM NaCl, and 50 nM wild-type or mutant enzyme, and increasing concentrations of soraphen A was titrated into the solution. The observed binding curve is fitted using conventional methods or the tight-binding model where appropriate.
(§2) We next developed a fluorescence-based binding assay using the structural information. […] There is also a slight blue shift in the fluorescence emission maximum upon soraphen binding. The observed increase in Trp fluorescence as a function of soraphen concentration can be easily fit to a one-site binding model (FIG. 5), confirming that there is a single binding site for soraphen in the BC domain. The binding affinity obtained from this fluorescence assay is generally in good agreement with that based on the radioactive binding assay (Table 3) (Weatherly et al., supra (2004)). Compared to the radioactive assay, the fluorescence assay has the advantage that it can measure affinity between 1 nM to 10 μM, whereas the radioactive assay is limited to Kd values […] ˜50 nM.

[3] = molecular target: T2, F510I mutant yeast BC domain (Saccharomyces cerevisiae, UniProt Q00955, F510I); test: radioactive binding assay, F510I mutant; settings: read-out: Kd (nM) (radiactive assay)
T2 construct: Residues 2-581 of yeast ACC were sub-cloned into the pET28a vector; made in house; host or cells: E. coli
T2 sequence (Q00955 2-581 F510I): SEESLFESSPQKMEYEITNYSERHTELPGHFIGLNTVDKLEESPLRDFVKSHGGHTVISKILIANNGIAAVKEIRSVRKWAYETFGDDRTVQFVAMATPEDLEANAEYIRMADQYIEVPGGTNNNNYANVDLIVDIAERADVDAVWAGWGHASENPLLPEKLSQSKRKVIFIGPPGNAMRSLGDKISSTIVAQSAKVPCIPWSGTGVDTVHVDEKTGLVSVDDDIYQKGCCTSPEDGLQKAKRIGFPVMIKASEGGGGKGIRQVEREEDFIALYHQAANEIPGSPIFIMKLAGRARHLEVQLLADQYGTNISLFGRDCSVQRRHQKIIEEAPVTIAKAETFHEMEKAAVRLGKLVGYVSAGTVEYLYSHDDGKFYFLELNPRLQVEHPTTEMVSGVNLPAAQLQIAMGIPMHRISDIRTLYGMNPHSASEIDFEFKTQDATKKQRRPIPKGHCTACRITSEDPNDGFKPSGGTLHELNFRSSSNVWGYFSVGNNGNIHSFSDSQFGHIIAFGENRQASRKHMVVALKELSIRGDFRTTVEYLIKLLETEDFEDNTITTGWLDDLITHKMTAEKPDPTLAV
Experimental: (§3) The mutants were designed based on the structural information and made with the QuikChange kit (Stratagene). The mutants were sequenced, expressed in E. coli, and purified following the same protocol as that for the wild-type BC domain. The affinity of soraphen for the mutants were assessed using a radioactive binding assay (Weatherly et al., supra (2004)).

[4] = molecular target: T3, E477R mutant yeast BC domain (Saccharomyces cerevisiae, UniProt Q00955, E477R); test: radioactive binding assay, E477R mutant; settings: read-out: Kd (nM) (radiactive assay)
T3 construct: Residues 2-581 of yeast ACC were sub-cloned into the pET28a vector; made in house; host or cells: E. coli
T3 sequence (Q00955 2-581 E477R): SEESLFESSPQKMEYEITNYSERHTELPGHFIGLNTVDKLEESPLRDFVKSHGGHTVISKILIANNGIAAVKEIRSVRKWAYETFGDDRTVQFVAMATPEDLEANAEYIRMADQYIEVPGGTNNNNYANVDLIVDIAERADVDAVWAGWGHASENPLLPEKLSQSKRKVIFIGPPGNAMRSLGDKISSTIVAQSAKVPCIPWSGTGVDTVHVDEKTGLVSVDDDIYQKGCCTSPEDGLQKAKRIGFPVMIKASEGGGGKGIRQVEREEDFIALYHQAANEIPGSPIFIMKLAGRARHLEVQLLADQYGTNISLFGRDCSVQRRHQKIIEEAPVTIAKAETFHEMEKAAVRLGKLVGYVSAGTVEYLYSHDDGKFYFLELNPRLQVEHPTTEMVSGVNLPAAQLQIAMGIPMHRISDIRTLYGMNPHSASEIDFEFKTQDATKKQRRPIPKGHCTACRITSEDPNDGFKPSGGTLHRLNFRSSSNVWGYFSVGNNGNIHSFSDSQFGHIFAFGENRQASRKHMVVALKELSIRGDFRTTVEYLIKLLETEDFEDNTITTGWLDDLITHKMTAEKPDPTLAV
Experimental: as §3

[5] = molecular target: T4, BC domain of human ACC1 (Homo sapiens, UniProt Q13085); test: binding to BC domain of human ACC1 (unpublished results)
T4 construct: the BC domains of human ACC1 and ACC2

[6] = molecular target: T3, E477R mutant yeast BC domain; test: fluorescence-based binding assay, E477R mutant; settings: 50 nM enzyme
Experimental: as §1, §2

[7] = molecular target: T5, K73R mutant of the BC domain (Saccharomyces cerevisiae, UniProt Q00955, K73R); test: native gel electrophoresis assay, K73R mutant; settings: K73R mutant of yeast BC domain, 12% native gel
T5 construct: Residues 2-581 of yeast ACC were sub-cloned into the pET28a vector; made in house; host or cells: E. coli
Experimental: (§4) FIG. 7. […] Schematic drawing of the dimer of E. coli BC subunit in complex with ATP (Thoden et al., supra 2000). The dimer axis is indicated with the magenta oval. […] (B). Native gel (12%) showing the electrophoretic mobility of wild-type and K73R mutant of yeast BC domain in the absence or presence of soraphen. […] Each lane was loaded with 20 μg of protein in 10 μl.
(§5) To obtain experimental evidence for the effects of soraphen A on the oligomerization state of BC domains, we examined the mobility of the yeast BC domain in a native gel electrophoresis assay.

[8] = molecular target: T6, W487R mutant yeast BC domain (Saccharomyces cerevisiae, UniProt Q00955, W487R); test: radioactive binding assay, W487R mutant; settings: up to 60 nM soraphen A, 10 nM protein, read-out: Kd (nM) (radiactive assay)
T6 construct: Residues 2-581 of yeast ACC were sub-cloned into the pET28a vector; made in house; host or cells: E. coli
T6 sequence (Q00955 2-581 W487R): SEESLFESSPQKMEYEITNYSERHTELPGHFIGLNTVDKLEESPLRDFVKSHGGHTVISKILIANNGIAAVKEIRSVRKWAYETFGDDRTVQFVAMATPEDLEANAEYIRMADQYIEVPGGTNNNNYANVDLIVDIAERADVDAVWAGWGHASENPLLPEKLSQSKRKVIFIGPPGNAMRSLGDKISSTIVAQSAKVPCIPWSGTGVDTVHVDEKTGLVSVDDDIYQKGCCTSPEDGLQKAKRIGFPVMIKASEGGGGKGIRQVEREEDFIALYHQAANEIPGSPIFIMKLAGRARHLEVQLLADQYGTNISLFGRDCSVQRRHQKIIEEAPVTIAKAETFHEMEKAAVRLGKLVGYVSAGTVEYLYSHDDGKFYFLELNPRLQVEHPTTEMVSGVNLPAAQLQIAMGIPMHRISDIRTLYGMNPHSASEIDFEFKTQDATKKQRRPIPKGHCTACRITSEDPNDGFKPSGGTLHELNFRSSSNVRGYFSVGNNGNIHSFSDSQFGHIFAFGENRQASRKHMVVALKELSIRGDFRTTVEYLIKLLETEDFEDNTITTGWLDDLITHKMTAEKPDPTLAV
Experimental: as §3

[9] = molecular target: BC domain of eukaryotic ACCs; settings: literature; cited from earlier work
[10] = molecular target: T7, active site of yeast BC domain (Saccharomyces cerevisiae, UniProt Q00955); test: binding of fluorescent ATP analog (Mant-ATP) to active site; settings: preliminary experiments, unpublished data
T7 construct: Residues 2-581 of yeast ACC were sub-cloned into the pET28a vector; made in house; host or cells: E. coli BL21(DE3) Rosetta

[11] = molecular target: T8, K73R mutant yeast BC domain (Saccharomyces cerevisiae, UniProt Q00955, K73R); test: radioactive binding assay, K73R mutant; settings: up to 60 nM soraphen A, 10 nM protein, read-out: Kd (nM) (radiactive assay)
T8 construct: Residues 2-581 of yeast ACC were sub-cloned into the pET28a vector; made in house; host or cells: E. coli
T8 sequence (Q00955 2-581 K73R): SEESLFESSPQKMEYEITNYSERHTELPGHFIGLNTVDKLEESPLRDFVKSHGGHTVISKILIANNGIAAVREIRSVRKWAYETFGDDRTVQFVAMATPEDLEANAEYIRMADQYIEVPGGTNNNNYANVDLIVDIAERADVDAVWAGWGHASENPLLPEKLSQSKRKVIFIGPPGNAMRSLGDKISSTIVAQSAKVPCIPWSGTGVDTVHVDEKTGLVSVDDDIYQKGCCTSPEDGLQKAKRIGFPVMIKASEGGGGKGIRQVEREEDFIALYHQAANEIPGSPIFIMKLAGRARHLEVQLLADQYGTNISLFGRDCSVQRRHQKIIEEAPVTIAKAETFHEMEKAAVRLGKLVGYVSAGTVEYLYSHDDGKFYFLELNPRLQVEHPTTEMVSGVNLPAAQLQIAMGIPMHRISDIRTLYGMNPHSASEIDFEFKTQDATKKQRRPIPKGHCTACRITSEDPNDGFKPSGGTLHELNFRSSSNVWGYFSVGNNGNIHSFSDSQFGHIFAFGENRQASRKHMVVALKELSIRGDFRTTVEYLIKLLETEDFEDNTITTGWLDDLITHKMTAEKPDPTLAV
Experimental: as §3

[12] = molecular target: T9, Wild-type yeast BC domain (Saccharomyces cerevisiae, UniProt Q00955); test: radioactive binding assay, wild-type yeast BC domain; settings: read-out: Kd (nM) (radiactive assay)
T9 construct: Residues 2-581 of yeast ACC were sub-cloned into the pET28a vector; made in house; host or cells: E. coli BL21(DE3) Rosetta
T9 sequence (Q00955 2-581): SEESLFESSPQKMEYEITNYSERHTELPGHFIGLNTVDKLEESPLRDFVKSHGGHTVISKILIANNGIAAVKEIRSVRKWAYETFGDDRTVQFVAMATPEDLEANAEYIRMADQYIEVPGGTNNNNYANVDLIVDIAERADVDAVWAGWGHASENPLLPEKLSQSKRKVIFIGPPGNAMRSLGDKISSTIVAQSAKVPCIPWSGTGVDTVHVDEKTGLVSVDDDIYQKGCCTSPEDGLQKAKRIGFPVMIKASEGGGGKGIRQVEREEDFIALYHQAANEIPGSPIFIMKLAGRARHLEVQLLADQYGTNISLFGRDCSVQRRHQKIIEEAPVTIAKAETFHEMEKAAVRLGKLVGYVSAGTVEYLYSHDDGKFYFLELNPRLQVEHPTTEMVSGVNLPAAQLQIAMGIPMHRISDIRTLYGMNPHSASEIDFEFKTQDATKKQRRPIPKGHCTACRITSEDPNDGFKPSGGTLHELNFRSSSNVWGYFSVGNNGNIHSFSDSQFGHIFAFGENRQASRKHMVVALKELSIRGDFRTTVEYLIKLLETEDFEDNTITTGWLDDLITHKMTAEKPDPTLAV
Experimental: as §3

[13] = molecular target: T8, K73R mutant yeast BC domain; test: fluorescence-based binding assay, K73R mutant
Experimental: as §1, §2

[14] = molecular target: T2, F510I mutant yeast BC domain; test: fluorescence-based binding assay, F510I mutant
Experimental: as §1, §2

[15] = molecular target: T6, W487R mutant yeast BC domain; test: fluorescence-based binding assay, W487R mutant; settings: W487R mutant (data not shown)
Experimental: as §1, §2

[16] = molecular target: T10, S77Y mutant yeast BC domain (Saccharomyces cerevisiae, UniProt Q00955, S77Y); test: radioactive binding assay, S77Y mutant; settings: up to 60 nM soraphen A, 10 nM protein, read-out: Kd (nM) (radiactive assay)
T10 construct: Residues 2-581 of yeast ACC were sub-cloned into the pET28a vector; made in house; host or cells: E. coli
T10 sequence (Q00955 2-581 S77Y): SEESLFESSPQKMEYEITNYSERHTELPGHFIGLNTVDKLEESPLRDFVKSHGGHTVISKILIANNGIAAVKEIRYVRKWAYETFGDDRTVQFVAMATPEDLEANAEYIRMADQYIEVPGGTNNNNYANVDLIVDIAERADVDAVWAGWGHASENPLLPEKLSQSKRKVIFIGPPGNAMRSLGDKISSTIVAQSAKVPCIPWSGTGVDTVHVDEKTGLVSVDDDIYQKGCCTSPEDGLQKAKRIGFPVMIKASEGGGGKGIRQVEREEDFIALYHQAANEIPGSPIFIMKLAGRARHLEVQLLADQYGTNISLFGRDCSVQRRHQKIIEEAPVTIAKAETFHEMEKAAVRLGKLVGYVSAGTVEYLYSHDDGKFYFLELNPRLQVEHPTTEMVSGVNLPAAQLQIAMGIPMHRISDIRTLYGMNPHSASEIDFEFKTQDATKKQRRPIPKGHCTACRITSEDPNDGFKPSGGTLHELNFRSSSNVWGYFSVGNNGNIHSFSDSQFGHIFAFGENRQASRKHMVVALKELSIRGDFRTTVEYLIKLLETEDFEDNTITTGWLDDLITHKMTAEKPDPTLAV
Experimental: as §3

[17] = molecular target: T11, N485G mutant yeast BC domain (Saccharomyces cerevisiae, UniProt Q00955, N485G); test: radioactive binding assay, N485G mutant; settings: read-out: Kd (nM) (radiactive assay)
T11 construct: Residues 2-581 of yeast ACC were sub-cloned into the pET28a vector; made in house; host or cells: E. coli
T11 sequence (Q00955 2-581 N485G): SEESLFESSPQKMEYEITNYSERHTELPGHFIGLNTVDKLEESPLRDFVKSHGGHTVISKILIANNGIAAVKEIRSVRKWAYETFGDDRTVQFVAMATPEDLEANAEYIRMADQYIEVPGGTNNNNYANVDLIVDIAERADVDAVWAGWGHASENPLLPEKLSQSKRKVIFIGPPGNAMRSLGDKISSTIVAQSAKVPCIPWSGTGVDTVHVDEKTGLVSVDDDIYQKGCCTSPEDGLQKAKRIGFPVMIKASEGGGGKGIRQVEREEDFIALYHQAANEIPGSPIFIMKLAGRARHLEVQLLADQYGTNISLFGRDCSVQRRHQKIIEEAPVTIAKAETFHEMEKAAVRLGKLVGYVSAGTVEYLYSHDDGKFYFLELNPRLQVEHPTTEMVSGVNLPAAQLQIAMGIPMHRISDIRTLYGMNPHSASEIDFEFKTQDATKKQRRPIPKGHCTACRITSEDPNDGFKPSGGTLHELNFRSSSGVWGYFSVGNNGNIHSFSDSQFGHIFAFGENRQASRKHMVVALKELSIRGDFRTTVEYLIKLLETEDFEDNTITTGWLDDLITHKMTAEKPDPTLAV
Experimental: as §3

[18] = molecular target: T9, Wild-type yeast BC domain; test: fluorescence-based binding assay (Trp emission), wild-type; settings: 50 nM enzyme
Experimental: as §1, §2

[19] = molecular target: T9, Wild-type yeast BC domain; test: native gel electrophoresis assay, wild-type BC domain; settings: 12% native gel
Experimental: as §4, §5

[20] = molecular target: yeast ACC Ser77 to Tyr mutant (Saccharomyces cerevisiae, UniProt Q00955, S77Y); settings: yeast ACC with Ser77 mutated to Tyr, literature; cited from earlier work
[21] = molecular target: T11, N485G mutant yeast BC domain; test: fluorescence-based binding assay, N485G mutant; settings: 50 nM enzyme
Experimental: as §1, §2

[22] = molecular target: T12, BC domain of human ACC2 (Homo sapiens, UniProt O00763); test: binding to BC domain of human ACC2 (unpublished results)
T12 construct: the BC domains of human ACC1 and ACC2

[23] = molecular target: K73R mutation of yeast ACC (Saccharomyces cerevisiae, UniProt Q00955, K73R); settings: cited from earlier work
[24] = molecular target: T1, I69E mutant yeast BC domain; test: radioactive binding assay, I69E mutant; settings: up to 60 nM soraphen A, 10 nM protein, read-out: Kd (nM) (radiactive assay)
Experimental: as §3

[25] = tested on: bacterial BC subunits; settings: literature; cited from earlier work
[26] = literature SAR, in words; cited from earlier work

Compound: CO[C@H]1CCCC[C@@H](c2ccccc2)OC(=O)[C@@H](C)[C@@]2(O)O[C@H]([C@@H](C)[C@H](O)[C@H]2OC)[C@@H](C)/C=C/[C@H]1OC [soraphen A]
- mode of inhibition with respect to the substrates of ACC [1]: noncompetitive
- Kd [2]: 104 ± 18 nM
- Kd [3]: 5.7 ± 1 nM
- Kd [4]: 24.7 ± 10.4 nM
- Kd [5]: ~1 nM
- Kd [6]: 274 ± 30 nM
- electrophoretic mobility in native gel in the presence of soraphen A [7]: not affected
- Kd [8]: > 60 nM
- Kd [9]: ~1 nM
- interference with the binding of Mant-ATP to the active site [10]: does not interfere
- Kd [11]: > 60 nM
- Kd [12]: 2 ± 0.9 nM
- Kd (in words) ([13]; K73R mutant): micromolar range
- loss in affinity for soraphen ([13]; K73R mutant versus wild-type): 500 fold
- Kd ([13]; K73R yeast BC domain, 50 nM enzyme): 2010 ± 174 nM
- impact on the affinity for soraphen ([14]; F510I mutation versus wild-type): minor impact
- Kd ([14]; F510I yeast BC domain, 50 nM enzyme): 10.6 ± 4.8 nM
- fluorescence change in the presence of soraphen [15]: little fluorescence change
- Kd [16]: > 60 nM
- Kd [17]: 2.7 ± 0.4 nM
- Kd [18]: 3.9 ± 0.7 nM
- electrophoretic mobility in native gel in the presence of soraphen A [19]: a sharp band is observed, with the fastest migrating speed
- sensitivity of the enzyme to soraphen A [20]: insensitive
- Kd [21]: 55 ± 4 nM
- Kd [22]: ~1 nM
- resistance to soraphen A [23]: resistance
- Kd [24]: > 60 nM
- effect on bacterial BC subunits [25]: no effect

Compound: soraphen F
- activity relative to soraphen A [26]: moderate loss of activity
